Assay results published in ChEMBL document CHEMBL3784985, “Thiadiazole derivatives as New Class of β-glucuronidase inhibitors” (Bioorg Med Chem, 2016).

Molecular target: T1, Beta-glucuronidase (Bos taurus, UniProt A3KMY8)
T1 sequence (A3KMY8 whole entry): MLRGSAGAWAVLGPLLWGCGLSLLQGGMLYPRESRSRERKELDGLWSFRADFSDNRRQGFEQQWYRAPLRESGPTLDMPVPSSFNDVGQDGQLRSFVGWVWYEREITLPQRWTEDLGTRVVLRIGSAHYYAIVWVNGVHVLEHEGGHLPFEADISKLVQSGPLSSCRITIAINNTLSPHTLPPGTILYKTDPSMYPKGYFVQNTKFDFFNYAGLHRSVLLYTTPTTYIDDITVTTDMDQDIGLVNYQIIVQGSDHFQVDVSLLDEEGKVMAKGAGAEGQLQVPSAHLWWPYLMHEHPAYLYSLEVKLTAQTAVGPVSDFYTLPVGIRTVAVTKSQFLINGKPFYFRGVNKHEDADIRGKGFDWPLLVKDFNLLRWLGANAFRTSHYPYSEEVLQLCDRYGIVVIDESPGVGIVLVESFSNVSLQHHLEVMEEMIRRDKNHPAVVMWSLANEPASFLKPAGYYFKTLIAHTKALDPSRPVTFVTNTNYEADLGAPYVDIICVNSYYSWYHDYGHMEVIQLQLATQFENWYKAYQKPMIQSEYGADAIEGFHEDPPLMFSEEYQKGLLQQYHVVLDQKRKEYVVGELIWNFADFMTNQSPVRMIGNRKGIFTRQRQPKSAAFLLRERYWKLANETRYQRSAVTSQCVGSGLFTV
Assay: Inhibition of bovine beta-glucuronidase assessed as p-nitrophenol formation preincubated for 30 mins followed by addition of p-nitrophenyl-beta-D-glucuronide by spectrophotometric analysis

Row | SMILES | IC50 [µM]
1 | Cc1ccc(Nc2nnc(-c3ccccc3)s2)cc1 | 48.4
2 | Brc1ccc(-c2nnc(Nc3ccccc3)s2)cc1 | 40.2
3 | Cc1ccc(Nc2nnc(-c3ccc(Br)cc3)s2)cc1 | 28.6
4 | Cc1ccc(-c2nnc(Nc3ccc(Cl)c(Cl)c3)s2)c(C)c1 | 15.6
5 | COc1ccccc1-c1nnc(Nc2cccc(Br)c2)s1 | 49.2
6 | Clc1ccc(Nc2nnc(-c3ccccc3)s2)cc1Cl | 6.28
7 | Brc1ccc(-c2nnc(Nc3cccc(Br)c3)s2)cc1 | 17.3
8 | COc1ccccc1-c1nnc(Nc2ccc(C)cc2)s1 | 58.1
9 | COc1ccc(-c2nnc(Nc3ccc(C)cc3)s2)c(OC)c1 | 39.3
10 | CC(C)(C)c1ccc(-c2nnc(Nc3ccc(Br)cc3)s2)cc1 | 32.2
11 | Cc1ccc(-c2nnc(Nc3cccc(Br)c3)s2)c(C)c1 | 36.1
12 | COc1ccc(-c2nnc(Nc3ccc(Br)cc3)s2)c(OC)c1 | 29.7
13 | COc1ccc(Nc2nnc(-c3ccccc3Cl)s2)cc1 | 22.6
14 | COc1cc(OC)cc(-c2nnc(Nc3ccc(Cl)c(Cl)c3)s2)c1 | 19.2
15 | Cc1ccc(Nc2nnc(-c3ccc(C(C)(C)C)cc3)s2)cc1 | 26.3
16 | COc1cc(OC)cc(-c2nnc(Nc3ccc(C)cc3)s2)c1 | 50.3
17 | Clc1ccc(Nc2nnc(-c3ccc(Br)cc3)s2)cc1Cl | 7.16
18 | Cc1ccc(Nc2nnc(-c3ccccc3Cl)s2)cc1 | 16.7
19 | Cc1ccc(Nc2nnc(-c3ccc(C)cc3C)s2)cc1 | 34.2
20 | COc1cccc(Nc2nnc(-c3ccc(Br)cc3)s2)c1 | 31.1
21 | Clc1ccccc1-c1nnc(Nc2cccc(Br)c2)s1 | 8.96
22 | COc1ccccc1-c1nnc(Nc2ccc(Cl)c(Cl)c2)s1 | 22.6
